# Assay results: ChEMBL document CHEMBL1201862, “PubChem BioAssay data set” (2004)
#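 Cells were grown in 96-well plates and exposed to each compound for 48 hours at five concentrations; endpoints were interpolated linearly between bracketing concentrations, or set to the highest concentration if not reached. GI50 = concentration required for 50% inhibition of growth.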 Active and inactive are the calls of the source. Rule as the data show it: active = GI50 up to about 1.1 µM and inactive = higher.
# Tests used:
# Assay in all cases: NCI tumour cell line growth inhibition, 48 h
# 786-0 = tested on: 786-0
# A498 = tested on: A498
# A549 = tested on: A549
# ACHN = tested on: ACHN
# CCRF-CEM = tested on: CCRF-CEM
# COLO 205 = tested on: COLO 205
# DLD-1 = tested on: DLD-1
# DMS-273 = tested on: DMS-273
# EKVX = tested on: EKVX
# HCC 2998 = tested on: HCC 2998
# HCT-116 = tested on: HCT-116
# HCT-15 = tested on: HCT-15
# HL-60 = tested on: HL-60
# HOP-62 = tested on: HOP-62
# HT-29 = tested on: HT-29
# IGROV-1 = tested on: IGROV-1
# K562 = tested on: K562
# KM-20L2 = tested on: KM-20L2
# KM12 = tested on: KM12
# LOX IMVI = tested on: LOX IMVI
# LXFL 529 = tested on: LXFL 529
# M14 = tested on: M14
# M19-MEL = tested on: M19-MEL
# MOLT-4 = tested on: MOLT-4
# Malme-3M = tested on: Malme-3M
# NCI-H226 = tested on: NCI-H226
# NCI-H23 = tested on: NCI-H23
# NCI-H460 = tested on: NCI-H460
# NCI-H522 = tested on: NCI-H522
# OVCAR-3 = tested on: OVCAR-3
# OVCAR-4 = tested on: OVCAR-4
# OVCAR-5 = tested on: OVCAR-5
# OVCAR-8 = tested on: OVCAR-8
# RPMI-8226 = tested on: RPMI-8226
# SF-268 = tested on: SF-268
# SF-295 = tested on: SF-295
# SK-MEL-28 = tested on: SK-MEL-28
# SK-MEL-2 = tested on: SK-MEL-2
# SK-MEL-5 = tested on: SK-MEL-5
# SK-OV-3 = tested on: SK-OV-3
# SN12C = tested on: SN12C
# SNB-19 = tested on: SNB-19
# SNB-75 = tested on: SNB-75
# SNB-78 = tested on: SNB-78
# SR = tested on: SR
# SW-620 = tested on: SW-620
# TK-10 = tested on: TK-10
# U-251 = tested on: U-251
# UACC-257 = tested on: UACC-257
# UACC-62 = tested on: UACC-62
# UO-31 = tested on: UO-31
# XF498 = tested on: XF498
# HOP-18 = tested on: HOP-18
# HOP-92 = tested on: HOP-92
# RXF 393 = tested on: RXF 393
# SF-539 = tested on: SF-539
smiles,measurement,setting,value
CCC(/C=C/c1ccccc1)=N\N=C(\C=C\c1ccccc1)CC,GI50,786-0,> 100 µM (inactive)
same,GI50,A498,> 100 µM (inactive)
same,GI50,A549,> 100 µM (inactive)
same,GI50,ACHN,> 100 µM (inactive)
same,GI50,CCRF-CEM,> 100 µM (inactive)
same,GI50,COLO 205,> 100 µM (inactive)
same,GI50,DLD-1,> 100 µM (inactive)
same,GI50,DMS-273,> 100 µM (inactive)
same,GI50,EKVX,> 100 µM (inactive)
same,GI50,HCC 2998,> 100 µM (inactive)
same,GI50,HCT-116,> 100 µM (inactive)
same,GI50,HCT-15,> 100 µM
same,GI50,HL-60,> 100 µM (inactive)
same,GI50,HOP-62,> 100 µM (inactive)
same,GI50,HT-29,> 100 µM (inactive)
same,GI50,IGROV-1,> 100 µM (inactive)
same,GI50,K562,> 100 µM (inactive)
same,GI50,KM-20L2,> 100 µM (inactive)
same,GI50,KM12,> 100 µM (inactive)
same,GI50,LOX IMVI,> 100 µM (inactive)
same,GI50,LXFL 529,> 100 µM (inactive)
same,GI50,M14,> 100 µM (inactive)
same,GI50,M19-MEL,> 100 µM (inactive)
same,GI50,MOLT-4,> 100 µM (inactive)
same,GI50,Malme-3M,> 100 µM (inactive)
same,GI50,NCI-H226,> 100 µM (inactive)
same,GI50,NCI-H23,> 100 µM (inactive)
same,GI50,NCI-H460,> 100 µM (inactive)
same,GI50,NCI-H522,> 100 µM (inactive)
same,GI50,OVCAR-3,> 100 µM (inactive)
same,GI50,OVCAR-4,> 100 µM (inactive)
same,GI50,OVCAR-5,> 100 µM (inactive)
same,GI50,OVCAR-8,> 100 µM (inactive)
same,GI50,RPMI-8226,> 100 µM (inactive)
same,GI50,SF-268,> 100 µM (inactive)
same,GI50,SF-295,> 100 µM (inactive)
same,GI50,SK-MEL-28,> 100 µM (inactive)
same,GI50,SK-MEL-2,> 100 µM (inactive)
same,GI50,SK-MEL-5,> 100 µM (inactive)
same,GI50,SK-OV-3,> 100 µM (inactive)
same,GI50,SN12C,> 100 µM (inactive)
same,GI50,SNB-19,> 100 µM (inactive)
same,GI50,SNB-75,> 100 µM (inactive)
same,GI50,SNB-78,> 100 µM (inactive)
same,GI50,SR,> 100 µM (inactive)
same,GI50,SW-620,> 100 µM (inactive)
same,GI50,TK-10,> 100 µM (inactive)
same,GI50,U-251,> 100 µM (inactive)
same,GI50,UACC-257,> 100 µM (inactive)
same,GI50,UACC-62,> 100 µM (inactive)
same,GI50,UO-31,> 100 µM (inactive)
same,GI50,XF498,> 100 µM (inactive)
CCOc1ccc2[nH]c3c(C)c4cc[n+](C)cc4c(C)c3c2c1,GI50,786-0,0.255 µM (active)
same,GI50,A549,1.95 µM (inactive)
same,GI50,CCRF-CEM,2.88 µM (inactive)
same,GI50,DLD-1,1.66 µM (inactive)
same,GI50,EKVX,4.24 µM (inactive)
same,GI50,HCC 2998,3.27 µM (inactive)
same,GI50,HCT-116,3 µM (inactive)
same,GI50,HL-60,7.85 µM (inactive)
same,GI50,HOP-18,4.03 µM (inactive)
same,GI50,HOP-92,2.5 µM (inactive)
same,GI50,HT-29,3.99 µM (inactive)
same,GI50,IGROV-1,2.25 µM (inactive)
same,GI50,K562,2.1 µM (inactive)
same,GI50,KM-20L2,4.95 µM (inactive)
same,GI50,KM12,2.4 µM (inactive)
same,GI50,LXFL 529,0.348 µM (active)
same,GI50,M14,8.41 µM (inactive)
same,GI50,NCI-H226,0.451 µM (active)
same,GI50,NCI-H23,0.838 µM (active)
same,GI50,NCI-H460,1.89 µM (inactive)
same,GI50,NCI-H522,1.11 µM (active)
same,GI50,OVCAR-3,3.93 µM (inactive)
same,GI50,OVCAR-4,3.61 µM (inactive)
same,GI50,RPMI-8226,18.3 µM (inactive)
same,GI50,RXF 393,8.71 µM (inactive)
same,GI50,SF-268,0.271 µM (active)
same,GI50,SF-295,0.25 µM (active)
same,GI50,SF-539,0.65 µM (active)
same,GI50,SK-MEL-28,3.1 µM (inactive)
same,GI50,SK-MEL-2,2.42 µM (inactive)
same,GI50,SK-MEL-5,1.55 µM (inactive)
same,GI50,SK-OV-3,2.92 µM (inactive)
same,GI50,SN12C,0.279 µM (active)
same,GI50,SNB-78,0.662 µM (active)
same,GI50,SW-620,2.05 µM (inactive)
same,GI50,U-251,0.228 µM (active)
same,GI50,UACC-257,4.25 µM (inactive)
same,GI50,UACC-62,2.77 µM (inactive)
same,GI50,UO-31,20.9 µM (inactive)
